{"source": "patent US12503707B2", "about": "“Methods, plants and compositions for overcoming nutrient suppression of mycorrhizal symbiosis” (Cambridge Enterprise Limited, priority 2020, dated 2025)", "key": {"[1]": {"system": "H. vulgare LysM receptor-like kinase homologs", "assay": "LysM receptor-like kinase gene expression by RT-qPCR after strigolactone or karrikin treatment", "format": "in vivo, Hordeum vulgare", "conditions": "−N+P plates for 4 days, then 0.1 μM for 24 hours; relative to DMSO mock", "description": "FIG. 13 provides the relative expression levels of H. vulgare genes, including LysM receptor-like kinase homologs, in response to treatment with strigolactone or karrikin signaling molecules, as determined by qPCR. The H. vulgare gene is indicated on the x-axis including, from left to right, HvSTH7b (a homolog of Arabidopsis STH7, a karrikin-responsive gene (Nelson et al., 2010, PNAS)), HvRLK2, HvRLK3, HvRLK7, HvRLK9, and HvRLK10. Relative expression levels are shown on the y-axis. Values shown are the mean of three samples±SD. ** indicates P<0.01, and * indicates 0.01<P<0.05, as determined by a Student's t-test. […]\nWild type H. vulgare plants tested in FIG. 13 were grown on BNM plates for four days, and the plate roots were then treated with either 0.1 μM 5′-deoxystrigol (Chiralix), a mixture of 0.1 μM Karrikin 1 or 0.1 μM Karrikin 2 (Chiralix), or 0.1 μM GR24 (Chiralix) in liquid BNM for 24 hours. […] Real-time quantitative PCR (RT-qPCR) was performed using SensiFAST SYBR No-ROX Kit. An H. vulgare ADP gene was used as a reference gene, and fold changes were calculated for 5′-deoxystrigol-, karrikins- or GR24-treated roots with respect to DMSO-treated roots (mock treatment). […]"}, "[2]": {"system": "H. vulgare root epidermal cells", "assay": "LCO-induced nuclear calcium oscillations after strigolactone, karrikin and/or CEP pre-treatment", "format": "cell-based, Hordeum vulgare", "conditions": "then 10^−7 M SmLCO", "method": "(§1) FIGS. 11A-11B provide the effects of strigolactone or karrikin treatment on M. truncatula (FIG. 11A) and H. vulgare (FIG. 11B) root epidermal cell nuclear calcium oscillations. FIG. 11A provides traces of nuclear calcium oscillations produced by M. truncatula root epidermal cells. Cells were grown under high phosphate and limiting nitrate levels (3.75 mM PO4^− and 0 mM NO3^−). The top trace represents control cells that were pretreated with buffer alone; the second trace represents cells that were pretreated with 1 μM of strigolactone 5-deoxystrigol for 12 hours; and the third trace represents cells that were pretreated with a 1 μM mixture of karrikin 1 and karrikin 2 (KARs) for 12 hours. All cells were secondarily treated with 10^−8 M NS-LCO. The scale bar indicates a span of 10 minutes, and the fractions indicate the number of cells that responded over the total number of cells analyzed.\nFIGS. 14A-14D provide the effects of treating H. vulgare plants with a strigolactone or with both a strigolactone and a CEP peptide. […] The scale bar indicates a span of 10 minutes, and the fractions indicate the number of cells that responded over the total number of cells analyzed. FIGS. 14B-14C provide the level of mycorrhizal colonization of H. vulgare when treated with the synthetic strigolactone analog GR24 under different nutrient conditions, as determined in two separate experiments. […]"}, "[3]": {"system": "M. truncatula root epidermal cells", "assay": "LCO-induced nuclear calcium oscillations after strigolactone or karrikin pre-treatment", "format": "cell-based, Medicago truncatula", "conditions": "3.75 mM PO4− and 0 mM NO3−; 1 μM pre-treatment for 12 hours, then LCO", "method": "as §1\nIn FIGS. 11A-11B, M. truncatula (FIG. 11A) and H. vulgare (FIG. 11B) plants were grown on media containing high phosphate and limiting nitrate (3.75 mM PO4^− and 0 mM NO3^− for M. truncatula; 0 mM NO3^− and 0.5 mM PO4^− for H. vulgare). H. vulgare pants tested in FIG. 14A were grown on BNM media containing high nitrate and high phosphate (5 mM NO3^− and 0.5 mM PO4^−). […]"}}}
{"substance": "5-deoxystrigol [strigolactone]", "values": [{"measurement": "expression of LysM receptor-like kinase genes, including RLK10", "setting": "[1]", "result": "induced"}, {"measurement": "symbiotic calcium oscillations under replete phosphate after pre-treatment", "setting": "[2]; 0 mM NO3− and 0.5 mM PO4−, 1 μM pre-treatment for 12 hrs", "result": "overrode phosphate suppression of symbiotic calcium oscillations"}, {"measurement": "LCO induction of calcium oscillations under high nitrate after pre-treatment", "setting": "[2]; 5 mM NO3− and 0.5 mM PO4−, 1 μM SL", "result": "only limited LCO induction of calcium oscillations"}, {"measurement": "symbiotic calcium oscillations under replete phosphate after pre-treatment", "setting": "[3]", "result": "overrode phosphate suppression of symbiotic calcium oscillations"}]}
